The results in this text go back to patent publication US5373089A, “Oxytocin antagonist” (Northwestern University, priority 1993, dated 1994).

The subject of experiment [1] is ADH. Briefly: ADH bioassay (alteration in urine output due to ADH). The class given is in vivo. The conditions noted are these: for ADH Bioassay pA2: in vivo. The procedure:
The above compound was also tested for antagonism to vasopressin. Anti-ADH activity can be determined by measuring the alteration in urine output due to ADH in the presence and absence of the antagonist. A suitable ADH-assay is described in Sawyer, et al., Endocrinology, 63:694 (1958). […] The ratio of oxytocin antagonism to ADH antagonism was very high, viz. over 1, 866, as compared with 200 for the compositions disclosed in the parent applications.
The anti-ADH activity is measured by the alteration in urine […] in the presence and absence of the antagonist to determine the specificity of the antagonist. The anti-ADH assay is described in Sawyer, et al., Endocrinology, 63:694 (1958).

Experiment [2] has as its system ESTROUS RAT UTERUS. Description: Oxytocic bioassay (isolated rat uterus, integrated contraction response to oxytocin). The class given is cell-based. The note with it: for Oxytocic Bioassay pA2: virgin rat uterus in natural estrus, Munsick's buffer 0.5 mM Mg++, integrated contraction area. From the text: The protocol used for the oxytocin bioassay procedure is derived from procedures described in a paper by Sawyer, et al., Endocrinology, 106:81 (1980), which in turn was based on reports of Munsick, Brit. J. Pharmacol., 3:328 (1960), and Holton, Brit. J. Pharmacol., 3:328 (1948). The assay calculations for the pA2 estimates are described by Schild, British J. Pharmacology, 2:189 (1947). The major difference in the present procedure from those reported by others in the field is that the area under the contraction is integrated where most other techniques calculate the amplitude. Integration provides much more consistent and reliable results although the pA2 estimates are approximately an order of magnitude lower than those reported using amplitude of the contraction as the endpoint.
1. Animals--a 1.5 cm piece of uterus from a virgin rat (Holtzman) in natural estrus is used for the assay.
2. Buffer/Assay Bath--The buffer used is Munsicks. […] The buffer is gassed continuously with 95% oxygen; 5% carbon dioxide giving a pH of 7.4. The temperature of the assay bath is 37° C. A 10 ml assay bath is used that contains a water jacket for maintaining the temperature and inlet and outlet spikets for adding and removing buffer.
3. Polygraph/transducer--The piece of uterine tissue used for the assay is anchored at one end and connected to a Statham Strain Gauge Force Transducer at the other end which in turn is attached to a Grass Polygraph Model 79 for monitoring the contractions.
4. Assay Protocol. (a) The tissue is equilibrated in the assay bath for one hour with washing with new buffer every fifteen minutes. One gram of tension is kept on the tissue at all times.
(b) The tissue is stimulated initially with oxytocin at 10 nM to "acclimate" the tissue and with […] KCl to determine the maximum contractile response.
(d) The tissue is exposed to oxytocin (Calbiochemical, San Diego, Calif.) for one minute and washed out. There is a three minute interval before addition of the next dose of the agonist or antagonist. When the antagonist is tested, it is given five minutes before the agonist. The agonist is given for one minute. All responses are integrated using a 7P10 Grass Integrator. This is the major difference between the present protocol and others in the literature which usually measure amplitude of the contractions as the response. A single concentration of oxytocin, equal to 80% of the maximum response, is used to test the antagonist. […] This is repeated three times for each dose of antagonist for a three point assay.
(e) Calculations for pA2 : The dose-response (DR) ratios are calculated for antagonist and a Schild's Plot is performed by plotting the Log (DR-1) vs. Log of antagonist concentration. The line plotted is calculated by least squares regression analysis. The pA2 is the concentration of antagonist at the point where the regression line crosses the 0 point of the Log (DR-1) ordinate. The pA2 is the negative Log of the concentration of antagonist that will reduce the response to the agonist by one-half.
The protocol used for the oxytocin bioassay procedure is derived from procedures described in a paper by Sawyer, et al., Endocrinology, 106:81 (1980), which in turn was based on reports of Munsick, Brit. J. Pharmacol., 3:328 (1960), and Holton, Brit. J. Pharmacol., 3:328 (1948). The assay calculations for the pA2 estimates are described by Schild, Brit. J. Pharmacol. (1947). The major difference in procedure from those previously reported was the integration of the area under the contraction instead of merely calculating the amplitude. Integration provides more consistent and reliable results, although the pA2 estimates are about an order of magnitude lower than those reported using amplitude of the contraction as the endpoint.
A 1.5 cm piece of uterus from a virgin rat (Holtzman) in natural estrus is used for the assay.
The buffer used is Munsick's. […]

Starred links: 1 amine or outer side, 2 acyl side, 3 side chain; linkers in the order of their positions; H or OH if unused. Positions of bridges follow the written chain, without caps; N, C: chain ends. Non-standard residues stand in square brackets, D forms with d. Residues, ends and D or L forms follow the SMILES beside them. X1 = O=C(CC1(S[*:2])CCCCC1)[*:1]

With “[(S)Pmp^1,D-Trp^2,Pen^6,Arg^8 ] oxytocin [Compound D]”, in experiment [1], the “ADH Bioassay pA2” value is below 5.75. Also, the “activity as a vasopressin antagonist” value in experiment [1] (result in words) is “very low activity”. In experiment [2] (estrous rat uterus, Table 3), the “OXYTOCIC BIOASSAY ED50” value was determined as 1.38 nM. Moreover, the “BIOASSAY ED50” value in experiment [2] (estrous rat uterus, Table 4) was 1.38 nM. For the same compound, the “BIOASSAY (ANTI/OTA)” value in experiment [2] (ratio to ANTAG I, rat oxytocic bioassay) is 22.1. The “Oxytocic Bioassay pA2” value in experiment [2] is reported as 8.86; in experiment [2] (D-Trp^2,Pen^6,Arg^8 ] oxytocin), “greater than 8.86”.
For the compound `CC[C@H](C)[C@@H]1NC(=O)[C@H](Cc2ccccc2)NC(=O)[C@@H](Cc2c[nH]c3ccccc23)NC(=O)CC2(CCCCC2)SSC[C@@H](C(=O)N2CCC[C@H]2C(=O)N[C@@H](CCCNC(=N)N)C(=O)NCC(N)=O)NC(=O)[C@H](CC(N)=O)NC1=O` [Compound B, [Pmp^1,D-Trp^2,Phe^3,Ile^4,Arg^8] oxytocin] ([dW]FINCPRG-NH2; linker N-5 via X1), the “ADH Bioassay pA2” value in experiment [1] worked out at 7.40. For the same compound, the “Oxytocic Bioassay pA2” value in experiment [2] stood at 7.51.
